Entries after “also recorded” stand apart in the source; their conditions may differ.
Test system: lung alveoli of mice damaged by toxic tobacco smoke exposure
Assay: Mouse model of intoxication by chronic inhalation of tobacco smoke, L-NIL in drinking water
Format: in vivo
Protocol: The regeneration and healing of the lung alveoli by L-NIL is shown in a mouse model of intoxication by chronic inhalation of tobacco smoke. In this model, mice are exposed to a stream of tobacco smoke in a concentration of 140 mg/m^3 for 6 h per day, 5 days a week over a period of up to 8 month.
The structural and functional pulmonary changes due to toxic smoke exposure were quantified with techniques suitable for this purpose. To assess the degree of alveolar damage, the mean linear intercept, alveolar septal wall thickness and the air space volume was quantified.
Parameters for the extent of vascular remodeling comprise the measurement of vascular wall thickness, staining for alpha-smooth muscle actin and von-Willebrand factor as well as the mean cross-sectional area of the vessels.
Functional measurements include the quantification of the lung function in spontaneously breathing as well as artificially ventilated mice with respect to airway resistance, lung compliance and volume flow. To evaluate functional changes of the vessels, lungs are investigated in an isolated perfused and ventilated experimental set-up, and pulmonary vascular resistance and reactivity are measured. The vascular reactivity is determined by quantifying the extent of vasoconstriction after addition of phenylephrine and can be deduced from dose/effect curves.
In a second experiment, L-NIL was administered orally via drinking water in a concentration of 600 μg/ml for a period for 3 months to treat mice with alveolar damage/destruction as a result of 8 months of toxic smoke exposure.

[1] = curative: oral L-NIL in drinking water 600 μg/ml for 3 months after 8 months of toxic smoke exposure

`[H]/N=C(/C)NCCCC[C@H](N)C(=O)O` [L-NIL, N^6-(1-iminoethyl)-L-lysine] was tested, and the “Proliferation, PCNA-positive cells in lung sections (FIGS. 5A to 5D)” value (L-NIL for 3 month after lung exposure to toxic smoke for 8 months) was “induction of proliferation”, the “Elastic fibers network, elastin-stained lungs (FIGS. 3A to 3D)” value (L-NIL treatment after destruction by toxic tobacco smoke exposure) was “regeneration of the elastic fibers network” and the “Total number of alveoli assessed by quantitative stereology (FIG. 2)” value (L-NIL treatment after toxic tobacco smoke exposure) was “regeneration of alveoli”. For the same compound, the Lung function [1] was “lung function improvement”, the “Regeneration of alveolar lung structure” value [1] was “regeneration of the damaged or destroyed lung alveoli; also recorded: complete regeneration of the alveolar lung structure” and the “Protection against alveolar damage/destruction (alveolar morphometry and lung functional measurements)” value (preventive: oral L-NIL in drinking water 600 μg/ml in parallel to smoke exposure over 8 months) was “complete protection against alveolar damage/destruction”.

— patent US20130123364A1 (priority 2011, published 2013)
